± gives the expanded uncertainty stated by the source.
Assay: xn = mol fraction of the nth substance listed
Conditions: 100 kPa, Liquid; for viscosity: Falling or rolling sphere viscometry; for mass density: Vibrating tube method

CCCCCCCCCCCCCC(=O)OC [methyl tetradecanoate] + CC1CCCCC1
viscosity (293.15 K, x2 = 0): 4.557 ± 0.1 mPa·s
viscosity (293.15 K, x2 = 0.1): 4.065 ± 0.09 mPa·s
viscosity (293.15 K, x2 = 0.2): 3.591 ± 0.079 mPa·s
viscosity (293.15 K, x2 = 0.3): 3.141 ± 0.069 mPa·s
viscosity (293.15 K, x2 = 0.4003): 2.706 ± 0.059 mPa·s
viscosity (293.15 K, x2 = 0.5001): 2.304 ± 0.05 mPa·s
viscosity (293.15 K, x2 = 0.6): 1.925 ± 0.042 mPa·s
viscosity (293.15 K, x2 = 0.6999): 1.578 ± 0.034 mPa·s
viscosity (293.15 K, x2 = 0.8): 1.267 ± 0.027 mPa·s
viscosity (293.15 K, x2 = 0.8999): 0.982 ± 0.021 mPa·s
mass density (293.15 K, x2 = 0): 867.17 ± 1.8 kg/m3
mass density (293.15 K, x2 = 0.1): 862.3 ± 1.8 kg/m3
mass density (293.15 K, x2 = 0.2): 856.82 ± 1.7 kg/m3
mass density (293.15 K, x2 = 0.3): 850.69 ± 1.7 kg/m3
mass density (293.15 K, x2 = 0.4003): 843.72 ± 1.7 kg/m3
mass density (293.15 K, x2 = 0.5001): 835.76 ± 1.7 kg/m3
mass density (293.15 K, x2 = 0.6): 826.55 ± 1.7 kg/m3
mass density (293.15 K, x2 = 0.6999): 815.89 ± 1.6 kg/m3
mass density (293.15 K, x2 = 0.8): 803.17 ± 1.6 kg/m3
mass density (293.15 K, x2 = 0.8999): 787.98 ± 1.6 kg/m3
viscosity (298.15 K, x2 = 0): 3.979 ± 0.088 mPa·s
viscosity (298.15 K, x2 = 0.1): 3.575 ± 0.079 mPa·s
viscosity (298.15 K, x2 = 0.2): 3.176 ± 0.07 mPa·s
viscosity (298.15 K, x2 = 0.3): 2.792 ± 0.061 mPa·s
viscosity (298.15 K, x2 = 0.4003): 2.424 ± 0.053 mPa·s
viscosity (298.15 K, x2 = 0.5001): 2.072 ± 0.045 mPa·s
viscosity (298.15 K, x2 = 0.6): 1.743 ± 0.038 mPa·s
viscosity (298.15 K, x2 = 0.6999): 1.438 ± 0.031 mPa·s
viscosity (298.15 K, x2 = 0.8): 1.163 ± 0.025 mPa·s
viscosity (298.15 K, x2 = 0.8999): 0.91 ± 0.02 mPa·s
mass density (298.15 K, x2 = 0): 863.35 ± 1.8 kg/m3
mass density (298.15 K, x2 = 0.1): 858.46 ± 1.7 kg/m3
mass density (298.15 K, x2 = 0.2): 853 ± 1.7 kg/m3
mass density (298.15 K, x2 = 0.3): 846.86 ± 1.7 kg/m3
mass density (298.15 K, x2 = 0.4003): 839.87 ± 1.7 kg/m3
mass density (298.15 K, x2 = 0.5001): 831.9 ± 1.7 kg/m3
mass density (298.15 K, x2 = 0.6): 822.64 ± 1.7 kg/m3
mass density (298.15 K, x2 = 0.6999): 811.92 ± 1.6 kg/m3
mass density (298.15 K, x2 = 0.8): 799.13 ± 1.6 kg/m3
mass density (298.15 K, x2 = 0.8999): 783.83 ± 1.6 kg/m3
viscosity (303.15 K, x2 = 0): 3.519 ± 0.078 mPa·s
viscosity (303.15 K, x2 = 0.1): 3.179 ± 0.07 mPa·s
viscosity (303.15 K, x2 = 0.2): 2.838 ± 0.062 mPa·s
viscosity (303.15 K, x2 = 0.3): 2.507 ± 0.055 mPa·s
viscosity (303.15 K, x2 = 0.4003): 2.19 ± 0.048 mPa·s
viscosity (303.15 K, x2 = 0.5001): 1.884 ± 0.041 mPa·s
viscosity (303.15 K, x2 = 0.6): 1.6 ± 0.035 mPa·s
viscosity (303.15 K, x2 = 0.6999): 1.327 ± 0.029 mPa·s
viscosity (303.15 K, x2 = 0.8): 1.078 ± 0.023 mPa·s
viscosity (303.15 K, x2 = 0.8999): 0.848 ± 0.018 mPa·s
mass density (303.15 K, x2 = 0): 859.54 ± 1.8 kg/m3
mass density (303.15 K, x2 = 0.1): 854.64 ± 1.7 kg/m3
mass density (303.15 K, x2 = 0.2): 849.17 ± 1.7 kg/m3
mass density (303.15 K, x2 = 0.3): 843.02 ± 1.7 kg/m3
mass density (303.15 K, x2 = 0.4003): 836.01 ± 1.7 kg/m3
mass density (303.15 K, x2 = 0.5001): 828.01 ± 1.7 kg/m3
mass density (303.15 K, x2 = 0.6): 818.71 ± 1.6 kg/m3
mass density (303.15 K, x2 = 0.6999): 807.93 ± 1.6 kg/m3
mass density (303.15 K, x2 = 0.8): 795.07 ± 1.6 kg/m3
mass density (303.15 K, x2 = 0.8999): 779.65 ± 1.6 kg/m3
viscosity (308.15 K, x2 = 0): 3.093 ± 0.069 mPa·s
viscosity (308.15 K, x2 = 0.1): 2.803 ± 0.062 mPa·s
viscosity (308.15 K, x2 = 0.2): 2.515 ± 0.055 mPa·s
viscosity (308.15 K, x2 = 0.3): 2.234 ± 0.049 mPa·s
viscosity (308.15 K, x2 = 0.4003): 1.962 ± 0.043 mPa·s
viscosity (308.15 K, x2 = 0.5001): 1.695 ± 0.037 mPa·s
viscosity (308.15 K, x2 = 0.6): 1.445 ± 0.031 mPa·s
viscosity (308.15 K, x2 = 0.6999): 1.205 ± 0.026 mPa·s
viscosity (308.15 K, x2 = 0.8): 0.987 ± 0.021 mPa·s
viscosity (308.15 K, x2 = 0.8999): 0.782 ± 0.017 mPa·s
mass density (308.15 K, x2 = 0): 855.74 ± 1.7 kg/m3
mass density (308.15 K, x2 = 0.1): 850.83 ± 1.7 kg/m3
mass density (308.15 K, x2 = 0.2): 845.36 ± 1.7 kg/m3
mass density (308.15 K, x2 = 0.3): 839.19 ± 1.7 kg/m3
mass density (308.15 K, x2 = 0.4003): 832.16 ± 1.7 kg/m3
mass density (308.15 K, x2 = 0.5001): 824.11 ± 1.7 kg/m3
mass density (308.15 K, x2 = 0.6): 814.78 ± 1.6 kg/m3
mass density (308.15 K, x2 = 0.6999): 803.92 ± 1.6 kg/m3
mass density (308.15 K, x2 = 0.8): 791 ± 1.6 kg/m3
mass density (308.15 K, x2 = 0.8999): 775.46 ± 1.6 kg/m3
viscosity (313.15 K, x2 = 0): 2.797 ± 0.062 mPa·s
viscosity (313.15 K, x2 = 0.1): 2.552 ± 0.056 mPa·s
viscosity (313.15 K, x2 = 0.2): 2.302 ± 0.051 mPa·s
viscosity (313.15 K, x2 = 0.3): 2.054 ± 0.045 mPa·s
viscosity (313.15 K, x2 = 0.4003): 1.803 ± 0.039 mPa·s
viscosity (313.15 K, x2 = 0.5001): 1.564 ± 0.034 mPa·s
viscosity (313.15 K, x2 = 0.6): 1.336 ± 0.029 mPa·s
viscosity (313.15 K, x2 = 0.6999): 1.121 ± 0.024 mPa·s
viscosity (313.15 K, x2 = 0.8): 0.918 ± 0.02 mPa·s
viscosity (313.15 K, x2 = 0.8999): 0.735 ± 0.016 mPa·s
mass density (313.15 K, x2 = 0): 851.94 ± 1.7 kg/m3
mass density (313.15 K, x2 = 0.1): 847.02 ± 1.7 kg/m3
mass density (313.15 K, x2 = 0.2): 841.53 ± 1.7 kg/m3
mass density (313.15 K, x2 = 0.3): 835.34 ± 1.7 kg/m3
mass density (313.15 K, x2 = 0.4003): 828.29 ± 1.7 kg/m3
mass density (313.15 K, x2 = 0.5001): 820.21 ± 1.6 kg/m3
mass density (313.15 K, x2 = 0.6): 810.83 ± 1.6 kg/m3
mass density (313.15 K, x2 = 0.6999): 799.9 ± 1.6 kg/m3
mass density (313.15 K, x2 = 0.8): 786.91 ± 1.6 kg/m3
mass density (313.15 K, x2 = 0.8999): 771.26 ± 1.6 kg/m3
viscosity (318.15 K, x2 = 0): 2.544 ± 0.056 mPa·s
viscosity (318.15 K, x2 = 0.1): 2.325 ± 0.051 mPa·s
viscosity (318.15 K, x2 = 0.2): 2.101 ± 0.046 mPa·s
viscosity (318.15 K, x2 = 0.3): 1.879 ± 0.041 mPa·s
viscosity (318.15 K, x2 = 0.4003): 1.661 ± 0.036 mPa·s
viscosity (318.15 K, x2 = 0.5001): 1.45 ± 0.031 mPa·s
viscosity (318.15 K, x2 = 0.6): 1.249 ± 0.027 mPa·s
viscosity (318.15 K, x2 = 0.6999): 1.052 ± 0.023 mPa·s
viscosity (318.15 K, x2 = 0.8): 0.868 ± 0.019 mPa·s
viscosity (318.15 K, x2 = 0.8999): 0.695 ± 0.015 mPa·s
mass density (318.15 K, x2 = 0): 848.14 ± 1.7 kg/m3
mass density (318.15 K, x2 = 0.1): 843.22 ± 1.7 kg/m3
mass density (318.15 K, x2 = 0.2): 837.71 ± 1.7 kg/m3
mass density (318.15 K, x2 = 0.3): 831.5 ± 1.7 kg/m3
mass density (318.15 K, x2 = 0.4003): 824.42 ± 1.7 kg/m3
mass density (318.15 K, x2 = 0.5001): 816.31 ± 1.6 kg/m3
mass density (318.15 K, x2 = 0.6): 806.88 ± 1.6 kg/m3
mass density (318.15 K, x2 = 0.6999): 795.9 ± 1.6 kg/m3
mass density (318.15 K, x2 = 0.8): 782.82 ± 1.6 kg/m3
mass density (318.15 K, x2 = 0.8999): 767.04 ± 1.5 kg/m3
viscosity (323.15 K, x2 = 0): 2.308 ± 0.051 mPa·s
viscosity (323.15 K, x2 = 0.1): 2.115 ± 0.047 mPa·s
viscosity (323.15 K, x2 = 0.2): 1.92 ± 0.042 mPa·s
viscosity (323.15 K, x2 = 0.3): 1.728 ± 0.038 mPa·s
viscosity (323.15 K, x2 = 0.4003): 1.534 ± 0.033 mPa·s
viscosity (323.15 K, x2 = 0.5001): 1.345 ± 0.029 mPa·s
viscosity (323.15 K, x2 = 0.6): 1.161 ± 0.025 mPa·s
viscosity (323.15 K, x2 = 0.6999): 0.985 ± 0.021 mPa·s
viscosity (323.15 K, x2 = 0.8): 0.819 ± 0.018 mPa·s
viscosity (323.15 K, x2 = 0.8999): 0.658 ± 0.014 mPa·s
mass density (323.15 K, x2 = 0): 844.34 ± 1.7 kg/m3
mass density (323.15 K, x2 = 0.1): 839.41 ± 1.7 kg/m3
mass density (323.15 K, x2 = 0.2): 833.87 ± 1.7 kg/m3
mass density (323.15 K, x2 = 0.3): 827.63 ± 1.7 kg/m3
mass density (323.15 K, x2 = 0.4003): 820.53 ± 1.7 kg/m3
mass density (323.15 K, x2 = 0.5001): 812.38 ± 1.6 kg/m3
mass density (323.15 K, x2 = 0.6): 802.92 ± 1.6 kg/m3
mass density (323.15 K, x2 = 0.6999): 791.88 ± 1.6 kg/m3
mass density (323.15 K, x2 = 0.8): 778.71 ± 1.6 kg/m3
mass density (323.15 K, x2 = 0.8999): 762.81 ± 1.5 kg/m3
